Where two headings read alike, the source gives them in different places.
Experiments:
sigma 2 receptor = sigma 2 receptor (Homo sapiens, UniProt Q5BJF2); assay: Sigma 2 receptor radioligand competition binding; conditions: for Ki ratio Sig1R/Sig2R: ratio of Sig1R Ki to Sig2R Ki
sigma 1 receptor = sigma 1 receptor (Homo sapiens, UniProt Q99720); assay: Sigma 1 receptor radioligand competition binding
H1 = H1 (Homo sapiens, UniProt P35367); assay: Radioligand competition binding, H1; conditions: Table 5; Cheng-Prusoff from best fit IC50
5-HT1A = target: T1, 5-HT1A (Homo sapiens, UniProt P08908); assay: Radioligand competition binding, 5-HT1A; conditions: Table 5; Cheng-Prusoff from best fit IC50
T1 sequence (P08908 1-422): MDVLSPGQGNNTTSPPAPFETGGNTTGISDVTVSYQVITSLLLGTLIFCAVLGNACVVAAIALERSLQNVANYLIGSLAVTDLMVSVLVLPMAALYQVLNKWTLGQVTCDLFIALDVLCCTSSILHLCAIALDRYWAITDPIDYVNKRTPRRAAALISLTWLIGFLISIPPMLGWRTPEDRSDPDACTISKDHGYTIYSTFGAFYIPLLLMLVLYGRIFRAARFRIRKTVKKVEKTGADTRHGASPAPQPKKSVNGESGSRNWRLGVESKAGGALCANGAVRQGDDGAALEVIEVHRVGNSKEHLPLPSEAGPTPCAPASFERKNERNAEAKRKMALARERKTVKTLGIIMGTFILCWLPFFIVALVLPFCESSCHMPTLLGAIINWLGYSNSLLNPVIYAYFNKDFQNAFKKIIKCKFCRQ

5-HT6 = 5-HT6 (Homo sapiens, UniProt P50406); assay: Radioligand competition binding, 5-HT6; conditions: Table 5; Cheng-Prusoff from best fit IC50
5-HT6, sequence (P50406 whole entry, species assumed): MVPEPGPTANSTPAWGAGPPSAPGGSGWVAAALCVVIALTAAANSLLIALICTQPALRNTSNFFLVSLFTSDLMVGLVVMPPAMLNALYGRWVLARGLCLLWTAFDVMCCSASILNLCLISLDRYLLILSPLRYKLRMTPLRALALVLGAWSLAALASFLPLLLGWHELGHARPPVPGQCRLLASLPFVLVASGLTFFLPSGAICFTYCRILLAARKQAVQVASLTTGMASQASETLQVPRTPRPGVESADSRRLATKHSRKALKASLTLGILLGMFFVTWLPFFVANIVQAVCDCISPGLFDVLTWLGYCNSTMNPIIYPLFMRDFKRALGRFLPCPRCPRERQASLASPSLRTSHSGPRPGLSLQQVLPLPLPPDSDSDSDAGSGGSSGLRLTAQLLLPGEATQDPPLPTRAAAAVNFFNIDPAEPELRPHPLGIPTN

D4 = target: T2, D4 (Homo sapiens, UniProt P21917); assay: Radioligand competition binding, D4; conditions: Table 5; Cheng-Prusoff from best fit IC50
T2 sequence (P21917 1-419): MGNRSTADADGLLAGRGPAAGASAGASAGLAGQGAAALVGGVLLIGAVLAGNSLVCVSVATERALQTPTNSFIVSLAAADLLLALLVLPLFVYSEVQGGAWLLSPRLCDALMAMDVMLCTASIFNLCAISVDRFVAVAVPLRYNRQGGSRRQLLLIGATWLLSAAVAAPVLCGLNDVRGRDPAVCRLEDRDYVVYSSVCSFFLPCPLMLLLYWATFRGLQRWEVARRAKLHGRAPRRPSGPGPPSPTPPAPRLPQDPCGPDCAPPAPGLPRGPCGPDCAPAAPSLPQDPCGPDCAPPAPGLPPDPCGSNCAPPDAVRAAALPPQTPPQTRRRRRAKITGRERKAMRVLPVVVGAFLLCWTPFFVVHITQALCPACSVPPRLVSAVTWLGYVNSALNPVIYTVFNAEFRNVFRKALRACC

5-HT1D = 5-HT1D (Homo sapiens, UniProt P28221); assay: Radioligand competition binding, 5-HT1D; conditions: Table 5; Cheng-Prusoff from best fit IC50
Alpha2A = target: T3, Alpha2A (Homo sapiens, UniProt P08913); assay: Radioligand competition binding, Alpha2A; conditions: Table 5; Cheng-Prusoff from best fit IC50
T3 sequence (P08913 1-465): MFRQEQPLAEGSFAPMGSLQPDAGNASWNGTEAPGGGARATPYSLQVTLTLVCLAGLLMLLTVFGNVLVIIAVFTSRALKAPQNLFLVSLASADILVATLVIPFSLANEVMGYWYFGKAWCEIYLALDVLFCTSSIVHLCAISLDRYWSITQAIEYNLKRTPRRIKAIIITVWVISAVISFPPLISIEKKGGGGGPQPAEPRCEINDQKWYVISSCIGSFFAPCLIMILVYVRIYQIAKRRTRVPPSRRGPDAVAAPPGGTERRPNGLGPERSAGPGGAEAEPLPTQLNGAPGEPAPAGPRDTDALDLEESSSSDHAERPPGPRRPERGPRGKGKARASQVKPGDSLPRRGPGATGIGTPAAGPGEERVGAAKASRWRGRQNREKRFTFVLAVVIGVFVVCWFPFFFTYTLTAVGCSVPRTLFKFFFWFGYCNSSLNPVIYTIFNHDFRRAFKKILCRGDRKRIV

D1 = D1 (Homo sapiens, UniProt P21728); assay: Radioligand competition binding, D1; conditions: Table 5; Cheng-Prusoff from best fit IC50; some values marked (AVE)
D1, sequence (P21728 whole entry): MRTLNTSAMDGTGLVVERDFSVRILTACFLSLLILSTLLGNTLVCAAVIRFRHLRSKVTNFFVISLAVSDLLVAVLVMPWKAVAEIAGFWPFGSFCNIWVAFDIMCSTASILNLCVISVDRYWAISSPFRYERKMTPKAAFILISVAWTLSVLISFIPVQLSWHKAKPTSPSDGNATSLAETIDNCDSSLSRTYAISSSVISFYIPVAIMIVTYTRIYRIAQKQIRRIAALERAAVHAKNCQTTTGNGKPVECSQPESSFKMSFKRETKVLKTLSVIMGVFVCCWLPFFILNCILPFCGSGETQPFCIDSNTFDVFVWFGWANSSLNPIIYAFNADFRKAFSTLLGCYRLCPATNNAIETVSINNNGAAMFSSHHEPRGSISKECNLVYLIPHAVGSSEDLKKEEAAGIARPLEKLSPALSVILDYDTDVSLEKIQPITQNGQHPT

D2 = D2 (Homo sapiens, UniProt P14416); assay: Radioligand competition binding, D2; conditions: Table 5; Cheng-Prusoff from best fit IC50
D2, sequence (P14416 whole entry): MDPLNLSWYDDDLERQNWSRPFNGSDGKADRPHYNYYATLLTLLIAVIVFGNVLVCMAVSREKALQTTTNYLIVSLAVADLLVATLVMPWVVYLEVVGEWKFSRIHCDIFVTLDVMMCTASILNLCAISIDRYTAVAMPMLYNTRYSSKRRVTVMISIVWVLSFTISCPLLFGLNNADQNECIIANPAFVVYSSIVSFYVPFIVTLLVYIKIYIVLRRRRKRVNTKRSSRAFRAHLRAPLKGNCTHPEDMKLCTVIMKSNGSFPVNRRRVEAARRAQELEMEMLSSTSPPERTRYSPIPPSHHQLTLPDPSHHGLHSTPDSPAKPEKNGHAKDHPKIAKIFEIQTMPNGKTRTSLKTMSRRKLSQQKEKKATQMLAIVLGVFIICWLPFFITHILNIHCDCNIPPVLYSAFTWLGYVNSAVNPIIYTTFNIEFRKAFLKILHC

DAT = DAT (Homo sapiens, UniProt Q01959); assay: Radioligand competition binding, DAT; conditions: Table 5; Cheng-Prusoff from best fit IC50
5-HT7 = 5-HT7 (Homo sapiens, UniProt P34969); assay: Radioligand competition binding, 5-HT7; conditions: Table 5; Cheng-Prusoff from best fit IC50
5-HT7, sequence (P34969 whole entry, species assumed): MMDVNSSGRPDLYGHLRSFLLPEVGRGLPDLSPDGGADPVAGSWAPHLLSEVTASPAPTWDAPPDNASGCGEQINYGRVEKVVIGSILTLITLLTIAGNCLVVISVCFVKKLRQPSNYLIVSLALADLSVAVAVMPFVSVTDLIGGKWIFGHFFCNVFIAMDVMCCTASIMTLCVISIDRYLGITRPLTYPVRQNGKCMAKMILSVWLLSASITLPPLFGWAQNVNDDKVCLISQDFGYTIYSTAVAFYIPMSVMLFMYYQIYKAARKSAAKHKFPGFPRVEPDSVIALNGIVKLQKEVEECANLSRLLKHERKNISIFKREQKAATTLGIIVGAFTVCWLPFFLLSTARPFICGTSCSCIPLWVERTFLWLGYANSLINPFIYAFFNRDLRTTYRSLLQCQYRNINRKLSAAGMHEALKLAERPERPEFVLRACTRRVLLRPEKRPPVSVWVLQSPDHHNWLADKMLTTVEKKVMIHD

5-HT2B = 5-HT2B (Homo sapiens, UniProt P41595); assay: Radioligand competition binding, 5-HT2B; conditions: Table 5; Cheng-Prusoff from best fit IC50
5-HT2B, sequence (P41595 whole entry, species assumed): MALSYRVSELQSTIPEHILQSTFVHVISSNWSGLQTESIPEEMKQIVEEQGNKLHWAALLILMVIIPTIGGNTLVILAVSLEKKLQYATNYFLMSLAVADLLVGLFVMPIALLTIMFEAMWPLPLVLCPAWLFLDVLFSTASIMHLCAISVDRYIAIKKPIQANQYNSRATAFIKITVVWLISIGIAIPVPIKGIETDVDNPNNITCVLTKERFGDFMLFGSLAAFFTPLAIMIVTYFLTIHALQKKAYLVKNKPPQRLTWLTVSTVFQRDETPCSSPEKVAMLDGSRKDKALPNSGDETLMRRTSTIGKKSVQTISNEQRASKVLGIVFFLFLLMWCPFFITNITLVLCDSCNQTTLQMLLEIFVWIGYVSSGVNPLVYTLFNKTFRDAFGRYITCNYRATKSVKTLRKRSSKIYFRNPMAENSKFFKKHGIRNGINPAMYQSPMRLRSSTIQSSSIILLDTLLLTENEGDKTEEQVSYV

5-HT2A = 5-HT2A (Homo sapiens, UniProt P28223); assay: Radioligand competition binding, 5-HT2A; conditions: Table 5; Cheng-Prusoff from best fit IC50
5-HT2A, sequence (P28223 whole entry, species assumed): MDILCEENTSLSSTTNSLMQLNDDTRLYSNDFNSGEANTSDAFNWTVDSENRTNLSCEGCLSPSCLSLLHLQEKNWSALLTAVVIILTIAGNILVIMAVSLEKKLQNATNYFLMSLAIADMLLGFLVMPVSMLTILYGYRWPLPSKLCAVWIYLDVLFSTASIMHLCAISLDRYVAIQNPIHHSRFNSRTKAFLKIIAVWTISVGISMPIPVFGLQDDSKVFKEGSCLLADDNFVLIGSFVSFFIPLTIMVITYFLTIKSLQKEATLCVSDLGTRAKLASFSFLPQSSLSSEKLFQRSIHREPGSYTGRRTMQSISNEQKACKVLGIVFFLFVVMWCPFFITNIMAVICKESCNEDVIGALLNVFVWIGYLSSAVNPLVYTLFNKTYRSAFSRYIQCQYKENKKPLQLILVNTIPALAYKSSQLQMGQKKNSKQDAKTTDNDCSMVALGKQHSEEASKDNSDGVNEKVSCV

D3 = D3 (Homo sapiens, UniProt P35462); assay: Radioligand competition binding, D3; conditions: Table 5; Cheng-Prusoff from best fit IC50; one value marked (AVE)
D3, sequence (P35462 whole entry): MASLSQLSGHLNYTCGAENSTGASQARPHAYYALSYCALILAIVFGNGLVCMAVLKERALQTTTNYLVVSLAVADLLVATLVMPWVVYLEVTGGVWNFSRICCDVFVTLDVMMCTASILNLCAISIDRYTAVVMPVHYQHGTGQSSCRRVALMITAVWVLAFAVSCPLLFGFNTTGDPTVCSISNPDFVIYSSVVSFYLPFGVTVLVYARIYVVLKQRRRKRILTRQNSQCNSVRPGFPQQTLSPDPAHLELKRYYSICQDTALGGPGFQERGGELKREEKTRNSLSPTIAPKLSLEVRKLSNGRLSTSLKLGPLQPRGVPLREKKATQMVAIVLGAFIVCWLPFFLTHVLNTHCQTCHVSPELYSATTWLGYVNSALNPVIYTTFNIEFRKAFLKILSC

H2 = H2 (Homo sapiens, UniProt P25021); assay: Radioligand competition binding, H2; conditions: Table 5; Cheng-Prusoff from best fit IC50
H2, sequence (P25021 whole entry): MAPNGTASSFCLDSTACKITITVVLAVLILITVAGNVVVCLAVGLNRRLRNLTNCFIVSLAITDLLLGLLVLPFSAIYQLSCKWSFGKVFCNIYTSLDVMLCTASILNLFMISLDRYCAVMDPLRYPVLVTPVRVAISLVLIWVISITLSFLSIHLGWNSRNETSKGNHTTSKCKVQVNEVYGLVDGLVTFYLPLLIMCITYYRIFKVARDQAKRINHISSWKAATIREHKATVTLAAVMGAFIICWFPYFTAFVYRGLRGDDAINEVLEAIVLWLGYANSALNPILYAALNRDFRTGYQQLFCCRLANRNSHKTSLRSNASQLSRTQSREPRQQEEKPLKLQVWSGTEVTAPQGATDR

5-HT1B = 5-HT1B (Homo sapiens, UniProt P28222); assay: Radioligand competition binding, 5-HT1B; conditions: Table 5; Cheng-Prusoff from best fit IC50
5-HT1B, sequence (P28222 whole entry, species assumed): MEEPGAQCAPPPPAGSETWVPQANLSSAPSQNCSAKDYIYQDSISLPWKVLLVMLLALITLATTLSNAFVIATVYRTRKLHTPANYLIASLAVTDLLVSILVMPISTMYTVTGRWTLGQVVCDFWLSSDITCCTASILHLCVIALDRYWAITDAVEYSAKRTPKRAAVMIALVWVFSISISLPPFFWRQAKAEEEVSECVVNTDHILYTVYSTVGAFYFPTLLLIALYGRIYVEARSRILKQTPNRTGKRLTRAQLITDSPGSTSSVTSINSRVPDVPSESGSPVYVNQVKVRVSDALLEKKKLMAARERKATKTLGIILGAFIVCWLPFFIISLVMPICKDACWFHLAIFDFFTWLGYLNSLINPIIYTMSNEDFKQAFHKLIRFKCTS

D5 = D5 (Homo sapiens, UniProt P21918); assay: Radioligand competition binding, D5; conditions: Table 5; Cheng-Prusoff from best fit IC50
D5, sequence (P21918 whole entry): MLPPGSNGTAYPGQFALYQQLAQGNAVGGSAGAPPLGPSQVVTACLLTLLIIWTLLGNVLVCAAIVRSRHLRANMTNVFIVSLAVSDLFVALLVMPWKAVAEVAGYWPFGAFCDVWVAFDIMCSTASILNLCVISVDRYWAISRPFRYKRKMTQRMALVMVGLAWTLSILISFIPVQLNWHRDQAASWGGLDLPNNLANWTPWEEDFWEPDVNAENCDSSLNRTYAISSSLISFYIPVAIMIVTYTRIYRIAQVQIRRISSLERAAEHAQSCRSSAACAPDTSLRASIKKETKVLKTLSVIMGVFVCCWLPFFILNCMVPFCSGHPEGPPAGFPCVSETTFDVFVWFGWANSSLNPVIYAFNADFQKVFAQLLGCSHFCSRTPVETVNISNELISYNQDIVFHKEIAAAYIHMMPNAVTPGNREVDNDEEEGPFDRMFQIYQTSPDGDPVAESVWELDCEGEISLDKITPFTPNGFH

[1] = Table 5, Cheng-Prusoff from best fit IC50, read-out: Ki Sigma 2
[2] = Table 1, 7-piperazinyl-tetrahydronaphthalene analogs, read-out: Ki (nM) Sig2R
[3] = Table 1, 7-piperazinyl-tetrahydronaphthalene analogs, read-out: Ki (nM) Sig1R
[4] = Table 2, piperazinyl-tetrahydronaphthalene analogs, read-out: Ki (nM) Sig2R
[5] = Table 2, piperazinyl-tetrahydronaphthalene analogs, read-out: Ki (nM) Sig1R

sigma 2 receptor, sequence (Q5BJF2 whole entry, species assumed): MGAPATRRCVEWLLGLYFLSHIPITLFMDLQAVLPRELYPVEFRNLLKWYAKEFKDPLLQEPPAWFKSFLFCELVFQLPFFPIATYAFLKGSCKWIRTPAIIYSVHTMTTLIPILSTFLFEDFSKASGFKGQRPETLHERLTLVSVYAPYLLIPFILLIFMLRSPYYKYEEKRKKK
sigma 1 receptor, sequence (Q99720 whole entry, species assumed): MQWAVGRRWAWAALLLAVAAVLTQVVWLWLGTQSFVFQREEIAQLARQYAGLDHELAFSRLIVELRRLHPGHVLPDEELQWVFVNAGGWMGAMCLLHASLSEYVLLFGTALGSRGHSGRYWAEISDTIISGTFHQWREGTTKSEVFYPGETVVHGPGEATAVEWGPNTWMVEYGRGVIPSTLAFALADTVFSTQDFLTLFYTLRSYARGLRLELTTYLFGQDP

Row | Structure (SMILES) | Ki (sigma 2 receptor; [2]) | Ki ratio Sig1R/Sig2R (sigma 2 receptor; Table 1) | Ki (sigma 1 receptor; [3]) | further results
1 | CN(Cc1ccccc1)C1CCCc2cc(N3CCOCC3)ccc21 (stereo not drawn) [MDW-1-129, N-Benzyl-N-methyl-6-morpholino-1,2,3,4-tetrahydronaphthalen-1-amine] | – | – | – | Ki (sigma 2 receptor; [1]): 1170 nM; Ki (sigma 1 receptor; Table 5, Cheng-Prusoff from best fit IC50, read-out: Ki Sigma 1): 223 nM; Ki (H1): 118 nM
2 | CC(C)N1CCN(c2ccc3c(c2)C(N(C)C(=O)OCc2ccccc2)CCC3)CC1 (stereo not drawn) [MDW-1-167, Benzyl (7-(4-isopropylpiperazin-1-yl)-1,2,3,4-tetrahydronaphthalen-1-yl)(methyl)carbamate] | 8 nM | 27 | 223 nM | –
3 | COC(=O)CCN1CCN(c2ccc3c(c2)C(N(C)C(=O)OCc2ccccc2)CCC3)CC1 (stereo not drawn) [MDW-1-166, Methyl 3-(4-(8-(((benzyloxy)carbonyl)(methyl)amino)-5,6,7,8-tetrahydronaphthalen-2-yl)piperazin-1-yl)propanoate] | 43 nM | 67 | 2860 nM | –
4 | CCOC(=O)CCN1CCN(c2ccc3c(c2)C(NC(=O)OCc2ccccc2)CCC3)CC1 (stereo not drawn) [MDW-1-206, Ethyl 3-(4-(8-(((benzyloxy)carbonyl)amino)-5,6,7,8-tetrahydronaphthalen-2-yl)piperazin-1-yl)propanoate] | 80 nM | 28 | 2260 nM | –
5 | CCCN1CCN(c2cccc3c2CCCC3N(C)C(=O)OCc2ccccc2)CC1 (stereo not drawn) [MDW-1-215, Benzyl methyl(5-(4-propylpiperazin-1-yl)-1,2,3,4-tetrahydronaphthalen-1-yl)carbamate] | – | – | – | Ki (sigma 2 receptor; [4]): 26 nM; Ki ratio Sig1R/Sig2R (sigma 2 receptor; Table 2): 0.5; Ki (sigma 1 receptor; [5]): 12 nM
6 | CCOC(=O)CCN1CCN(c2ccc3c(c2)CCCC3N(C)C(=O)OCc2ccccc2)CC1 (stereo not drawn) [MDW-1-207, Ethyl 3-(4-(5-(((benzyloxy)carbonyl)(methyl)amino)-5,6,7,8-tetrahydronaphthalen-2-yl)piperazin-1-yl)propanoate] | – | – | – | Ki (sigma 2 receptor; [4]): 91 nM; Ki ratio Sig1R/Sig2R (sigma 2 receptor; Table 2): 7; Ki (sigma 1 receptor; [5]): 647 nM
7 | CN(C(=O)OCc1ccccc1)C1CCCc2ccc(N3CCN(C4CCCCC4)CC3)cc21 (stereo not drawn) [MDW-1-205, Benzyl (7-(4-cyclohexylpiperazin-1-yl)-1,2,3,4-tetrahydronaphthalen-1-yl)(methyl)carbamate] | 2 nM | 8 | 16 nM | –
8 | CCCN1CCN(c2ccc3c(c2)C(NC(=O)OCc2ccccc2)CCC3)CC1 (stereo not drawn) [MDW-1-202, Benzyl (7-(4-propylpiperazin-1-yl)-1,2,3,4-tetrahydronaphthalen-1-yl)carbamate] | 56 nM | 3 | 174 nM | –
9 | CN(C(=O)OCc1ccccc1)C1CCCc2ccc(N3CCN(C4CCC4)CC3)cc21 (stereo not drawn) [MDW-1-162, Benzyl (7-(4-cyclobutylpiperazin-1-yl)-1,2,3,4-tetrahydronaphthalen-1-yl)(methyl)carbamate] | 12 nM | 22 | 266 nM | –
10 | CCCN1CCN(c2ccc3c(c2)C(N(CC)C(=O)OCc2ccccc2)CCC3)CC1 (stereo not drawn) [MDW-1-195, Benzyl ethyl(7-(4-propylpiperazin-1-yl)-1,2,3,4-tetrahydronaphthalen-1-yl)carbamate] | 5 nM | 70 | 321 nM | –
11 | CCCN1CCN(c2ccc3c(c2)CCCC3N(C)C(=O)OCc2ccccc2)CC1 (stereo not drawn) [MDW-1-204, Benzyl methyl(6-(4-propylpiperazin-1-yl)-1,2,3,4-tetrahydronaphthalen-1-yl)carbamate] | – | – | – | Ki (sigma 2 receptor; [4]): 13 nM; Ki ratio Sig1R/Sig2R (sigma 2 receptor; Table 2): 3; Ki (sigma 1 receptor; [5]): 40 nM
12 | CCOC(=O)CCN1CCN(c2cccc3c2CCCC3N(C)C(=O)OCc2ccccc2)CC1 (stereo not drawn) [MDW-1-214, Ethyl 3-(4-(5-(((benzyloxy)carbonyl)(methyl)amino)-5,6,7,8-tetrahydronaphthalen-1-yl)piperazin-1-yl)propanoate] | – | – | – | Ki (sigma 2 receptor; [4]): 34 nM; Ki ratio Sig1R/Sig2R (sigma 2 receptor; Table 2): 9; Ki (sigma 1 receptor; [5]): 303 nM
13 | CCOC(=O)CN1CCN(c2ccc3c(c2)C(N(C)C(=O)OCc2ccccc2)CCC3)CC1 (stereo not drawn) [MDW-1-169, Ethyl 2-(4-(8-(((benzyloxy)carbonyl)(methyl)amino)-5,6,7,8-tetrahydronaphthalen-2-yl)piperazin-1-yl)acetate] | 894 nM | – | > 10000 nM | –
14 | CCCN1CCN(c2ccc3c(c2)C(N(CCC)C(=O)OCc2ccccc2)CCC3)CC1 (stereo not drawn) [MDW-1-196, Benzyl propyl(7-(4-propylpiperazin-1-yl)-1,2,3,4-tetrahydronaphthalen-1-yl)carbamate] | 9 nM | 22 | 199 nM | Ki (5-HT1A): 3800 nM; Ki (5-HT6): 1960 nM; Ki (sigma 2 receptor; [1]): 9.4 nM; Ki (D4): 2510 nM; Ki (5-HT1D): 1100 nM; Ki (Alpha2A): 980 nM; Ki (D1): 1920 nM; Ki (D2): 931 nM; Ki (DAT): 1910 nM; Ki (5-HT7): 1050 nM; Ki (5-HT2B): 2140 nM; Ki (5-HT2A): 1280 nM; Ki (D3): 177 nM; Ki (H2): 1040 nM; Ki (5-HT1B): 1310 nM; Ki (D5): > 10000 nM

Further lines, with some results ahead:

Row | Ki (sigma 2 receptor; [2]) | Ki ratio Sig1R/Sig2R (sigma 2 receptor; Table 1) | Ki (sigma 1 receptor; [3]) | Structure (SMILES) | further results
15 | 25 nM | 1 | 33 nM | CCCN1CCN(c2ccc3c(c2)C(OC(=O)CCc2ccccc2)CCC3)CC1 (stereo not drawn) [MDW-1-290, 7-(4-Propylpiperazin-1-yl)-1,2,3,4-tetrahydronaphthalen-1-yl 3-phenylpropanoate] | –
16 | 35 nM | 25 | 887 nM | CCN1CCN(c2ccc3c(c2)C(N(C)C(=O)OCc2ccccc2)CCC3)CC1 (stereo not drawn) [MDW-1-161, Benzyl (7-(4-ethylpiperazin-1-yl)-1,2,3,4-tetrahydronaphthalen-1-yl)(methyl)carbamate] | –
17 | 20 nM | 166 | 3320 nM | CCOC(=O)CCN1CCN(c2ccc3c(c2)C(N(CC)C(=O)OCc2ccccc2)CCC3)CC1 (stereo not drawn) [MDW-1-190, Ethyl 3-(4-(8-(((benzyloxy)carbonyl)(ethyl)amino)-5,6,7,8-tetrahydronaphthalen-2-yl)piperazin-1-yl)propanoate] | –
18 | 284 nM | 10 | 2940 nM | CN1CCN(c2ccc3c(c2)C(N(C)C(=O)OCc2ccccc2)CCC3)CC1 (stereo not drawn) [MDW-1-93, Benzyl methyl(7-(4-methylpiperazin-1-yl)-1,2,3,4-tetrahydronaphthalen-1-yl)carbamate] | –

Reference: US20210323913A1, “SIGMA RECEPTOR BINDERS” (BOARD OF REGENTS, THE UNIVERSITY OF TEXAS SYSTEM, priority 2016, published 2021)
